Source: patent US20260209214A1, “LSD1 MODULATORS” (RECURSION PHARMACEUTICALS, INC., priority 2022, published 2026)

Target: Recombinant human LSD1 (Homo sapiens, UniProt O60341)
Experiment: LSD1 inhibition assay (HTRF LSD1 Histone H3K4 mono-demethylation assay, me1->me0)
Type: biochemical
Settings: 20 nM recombinant human LSD1, 95 nM H3K4(me1) biotinylated peptide, 15 min preincubation, 60 min at 25° C., read-out: LSD1 inhibition IC50 (nM range)
Procedure: LSD1 biochemical activity was measured using the HTRF® LSD1 Histone H3K4 mono-demethylation assay (me1->me0). Briefly, the enzymatic buffer was prepared by addition of 50 mM Tris-HCl (Sigma cat #T2663-IL), 50 mM NaCl (ThermoFisher cat #AM9759) and 0.01% Tween 20 (ThermoFisher cat #J20605.AP) in distilled water (final pH 8.5). This buffer was supplemented with 10 μM FAD (Fisher Scientific cat #11411838) and 1 mM DTT (Sigma cat #D0632). For the assay, H3K4(me1) biotinylated peptide substrate (Anaspec, cat #64355) was added to provide a final assay concentration of 95 nM. The streptavidin-XL665 (Cisbio cat #610SAXLA) and H3K4 me0-Eu(K) antibody-cryptate (Cisbio, cat #61 KAOKAD) detection reagents were mixed according to the manufacturer's instructions. Test compounds were diluted in DMSO in a series of 10 semi-log step doses; 10 nL of each compound dose were dispensed in 384 well plates. Recombinant human LSD1 was diluted into enzymatic buffer to provide a final assay concentration of 20 nM and added to the tested compounds for 15 minutes. The reaction was started by addition of the substrate and incubated at 25° C. for 60 minutes. The detection reagents were added, and the plate was incubated in the dark for 90 minutes. Fluorescence was measured on an Envision 2103 plate reader with optical setup for […] in the HTRF mode. The ratio of acceptor and donor emission signals was calculated for each well. Percent inhibition values were calculated from the HTRF ratios at different doses and fitted to a 4-parameter logistic curve to determine IC50 values. […]

| Compound | IC50 [nM] |
| --- | --- |
| N#Cc1ccc(-c2cccc(CN3[C@@H]4CC[C@H]3[C@@H](N)C4)c2OCC2CC2)cc1F (racemic) [Example 245, 3'-{[(1S,2S,4R)-2-amino-7-azabicyclo[2.2.1]heptan-7-yl]methyl}-2'-(cyclopropylmethoxy)-3-fluoro-[1,1'-biphenyl]-4-carbonitrile] | 25 to 100 |
| N#Cc1ccc(-c2cc(CN3[C@@H]4CC[C@H]3[C@@H](N)C4)ccc2CC2COC2)cc1F (racemic) [Example 246, 5'-{[(1S,2S,4R)-2-amino-7-azabicyclo[2.2.1]heptan-7-yl]methyl}-3-fluoro-2'-[(oxetan-3-yl)methyl]-[1,1'-biphenyl]-4-carbonitrile] | 100 to 1000 |
| CC1CC1c1c(CN2[C@@H]3CC[C@H]2[C@@H](N)C3)cccc1-c1ccc(C#N)c(F)c1 (mixture of isomers) [Example 247, 3'-{[(1S,2S,4R)-2-amino-7-azabicyclo[2.2.1]heptan-7-yl]methyl}-3-fluoro-2'-(2-methylcyclopropyl)-[1,1'-biphenyl]-4-carbonitrile] | 25 to 100 |
| N#Cc1ccc(-c2cccc(CN3[C@@H]4CC[C@H]3[C@@H](N)C4)c2C2=CCOCC2)cc1F (racemic) [Example 249, 3'-{[(1S,2S,4R)-2-amino-7-azabicyclo[2.2.1]heptan-7-yl]methyl}-2'-(3,6-dihydro-2H-pyran-4-yl)-3-fluoro-[1,1'-biphenyl]-4-carbonitrile] | 25 to 100 |
| CC(C)Oc1ccc(CN2[C@@H]3CC[C@H]2[C@@H](N)C3)cc1-c1ccc(C#N)c(F)c1 (racemic) [Example 250, 5'-{[(1S,2S,4R)-2-amino-7-azabicyclo[2.2.1]heptan-7-yl]methyl}-3-fluoro-2'-(propan-2-yloxy)-[1,1'-biphenyl]-4-carbonitrile] | 10 to 25 |
| N#Cc1ccc(-c2cc(CN3[C@@H]4CC[C@H]3[C@@H](N)C4)ccc2N2CC3(CC3)C2)cc1F (racemic) [Example 251, 5'-{[(1S,2S,4R)-2-amino-7-azabicyclo[2.2.1]heptan-7-yl]methyl}-2'-{5-azaspiro[2.3]hexan-5-yl}-3-fluoro-[1,1'-biphenyl]-4-carbonitrile] | 25 to 100 |
| N#Cc1ccc(-c2cc(CN3[C@@H]4CC[C@H]3[C@@H](N)C4)ccc2-c2ccsn2)cc1F (racemic) [Example 252, 5'-{[(1S,2S,4R)-2-amino-7-azabicyclo[2.2.1]heptan-7-yl]methyl}-3-fluoro-2'-(1,2-thiazol-3-yl)-[1,1'-biphenyl]-4-carbonitrile] | 25 to 100 |
| N#Cc1ccc(-c2cc(CN3[C@@H]4CC[C@H]3[C@@H](N)C4)ccc2-c2nccs2)cc1F (racemic) [Example 253, 5'-{[(1S,2S,4R)-2-amino-7-azabicyclo[2.2.1]heptan-7-yl]methyl}-3-fluoro-2'-(1,3-thiazol-2-yl)-[1,1'-biphenyl]-4-carbonitrile] | 25 to 100 |
| CN(CC1CC1)c1ccc(CN2[C@@H]3CC[C@H]2[C@@H](N)C3)cc1-c1ccc(C#N)c(F)c1 (racemic) [Example 254, 5'-{[(1S,2S,4R)-2-amino-7-azabicyclo[2.2.1]heptan-7-yl]methyl}-2'-[(cyclopropylmethyl)(methyl)amino]-3-fluoro-[1,1'-biphenyl]-4-carbonitrile] | 10 to 25 |
| N#Cc1ccc(-c2cc(CN3[C@@H]4CC[C@H]3[C@@H](N)C4)ccc2N2CCCCC2)cc1F (racemic) [Example 255, 5'-{[(1S,2S,4R)-2-amino-7-azabicyclo[2.2.1]heptan-7-yl]methyl}-3-fluoro-2'-(piperidin-1-yl)-[1,1'-biphenyl]-4-carbonitrile] | 10 to 25 |
| Cc1cccc(-c2ccc(CN3[C@@H]4CC[C@H]3[C@@H](N)C4)cc2-c2ccc(C#N)c(F)c2)n1 (racemic) [Example 256, 5'-{[(1S,2S,4R)-2-amino-7-azabicyclo[2.2.1]heptan-7-yl]methyl}-3-fluoro-2'-(6-methylpyridin-2-yl)-[1,1'-biphenyl]-4-carbonitrile] | 25 to 100 |
| Cc1cccnc1-c1ccc(CN2[C@@H]3CC[C@H]2[C@@H](N)C3)cc1-c1ccc(C#N)c(F)c1 (racemic) [Example 257, 5'-{[(1S,2S,4R)-2-amino-7-azabicyclo[2.2.1]heptan-7-yl]methyl}-3-fluoro-2'-(3-methylpyridin-2-yl)-[1,1'-biphenyl]-4-carbonitrile] | 10 to 25 |
| N#Cc1ccc(-c2cc(CN3[C@@H]4CC[C@H]3[C@@H](N)C4)ccc2-c2ccc(F)cn2)cc1F (racemic) [Example 258, 5'-{[(1S,2S,4R)-2-amino-7-azabicyclo[2.2.1]heptan-7-yl]methyl}-3-fluoro-2'-(5-fluoropyridin-2-yl)-[1,1'-biphenyl]-4-carbonitrile] | 25 to 100 |
| CC1CCN(c2ccc(CN3[C@@H]4CC[C@H]3[C@@H](N)C4)cc2-c2ccc(C#N)c(F)c2)CC1 (racemic) [Example 259, 5'-{[(1S,2S,4R)-2-amino-7-azabicyclo[2.2.1]heptan-7-yl]methyl}-3-fluoro-2'-(4-methylpiperidin-1-yl)-[1,1'-biphenyl]-4-carbonitrile] | 10 to 25 |
| COC1CCN(c2ccc(CN3[C@@H]4CC[C@H]3[C@@H](N)C4)cc2-c2ccc(C#N)c(F)c2)CC1 (racemic) [Example 260, 5'-{[(1S,2S,4R)-2-amino-7-azabicyclo[2.2.1]heptan-7-yl]methyl}-3-fluoro-2'-(4-methoxypiperidin-1-yl)-[1,1'-biphenyl]-4-carbonitrile] | 10 to 25 |
| N#Cc1ccc(-c2cc(Cl)cc(CN3[C@@H]4CC[C@H]3[C@@H](N)C4)c2-c2cncs2)cc1F (racemic) [Example 268, 3'-{[(1S,2S,4R)-2-amino-7-azabicyclo[2.2.1]heptan-7-yl]methyl}-5'-chloro-3-fluoro-2'-(1,3-thiazol-5-yl)-[1,1'-biphenyl]-4-carbonitrile] | 10 to 25 |
| CN(CC1CC1)c1c(CN2[C@@H]3CC[C@H]2[C@@H](N)C3)cccc1-c1ccc(C#N)c(F)c1 (racemic) [Example 269, 3'-{[(1S,2S,4R)-2-amino-7-azabicyclo[2.2.1]heptan-7-yl]methyl}-2'-[(cyclopropylmethyl)(methyl)amino]-3-fluoro-[1,1'-biphenyl]-4-carbonitrile] | 100 to 1000 |
| N#Cc1ccc(-c2cccc(CN3[C@@H]4CC[C@H]3[C@@H](N)C4)c2N2CCCC2)cc1F (racemic) [Example 270, 3'-{[(1S,2S,4R)-2-amino-7-azabicyclo[2.2.1]heptan-7-yl]methyl}-3-fluoro-2'-(pyrrolidin-1-yl)-[1,1'-biphenyl]-4-carbonitrile] | 100 to 1000 |
| N#Cc1ccc(-c2cccc(CN3CCC[C@H]4NCC[C@H]43)c2-c2cncs2)cc1F (racemic) [Example 279, 3'-{[(3aR,7aR)-otcahydro-1H-pyrrolo[3,2-b]pyridin-4-yl]methyl}-3-fluoro-2'-(1,3-thiazol-5-yl)-[1,1'-biphenyl]-4-carbonitrile] | 10 to 25 |
| N#Cc1ccc(-c2cccc(CN3[C@H]4CC[C@H](N)[C@@H]3CC4)c2Cl)cc1F (racemic) [Example 282, 3'-{[(1S,2S,5S)-2-amino-8-azabicyclo[3.2.1]octan-8-yl]methyl}-2'-chloro-3-fluoro-[1,1'-biphenyl]-4-carbonitrile] | 100 to 1000 |
| N#Cc1ccc(-c2cccc(CN3[C@@H]4CC[C@H]3[C@@H](N)C4)c2C(F)F)cc1F (racemic) [Example 301, 3'-{[(1S,2S,4R)-2-amino-7-azabicyclo[2.2.1]heptan-7-yl]methyl}-2'-(difluoromethyl)-3-fluoro-[1,1'-biphenyl]-4-carbonitrile] | 25 to 100 |
| N#Cc1ccc(-c2cccc(CN3[C@@H]4CC[C@H]3[C@@H](N)C4)c2C2=CCOC2)cc1F (racemic) [Example 303, 3'-{[(1S,2S,4R)-2-amino-7-azabicyclo[2.2.1]heptan-7-yl]methyl}-2'-(2,5-dihydrofuran-3-yl)-3-fluoro-[1,1'-biphenyl]-4-carbonitrile] | < 10 |
| Cc1cc(CN2[C@@H]3CC[C@H]2[C@@H](N)C3)c(C2CC2)c(-c2ccc(C#N)c(F)c2)c1 (racemic) [Example 304, 3'-{[(1S,2S,4R)-2-amino-7-azabicyclo[2.2.1]heptan-7-yl]methyl}-2'-cyclopropyl-3-fluoro-5'-methyl-[1,1'-biphenyl]-4-carbonitrile] | 10 to 25 |
| N#Cc1ccc(-c2cc(CN3[C@@H]4CC[C@H]3[C@@H](N)C4)ccc2Cl)cc1F (racemic) [Example 305, 5'-{[(1S,2S,4R)-2-amino-7-azabicyclo[2.2.1]heptan-7-yl]methyl}-2'-chloro-3-fluoro-[1,1'-biphenyl]-4-carbonitrile] | 25 to 100 |
